Laboratory results taken from ChEMBL document CHEMBL1201862, “PubChem BioAssay data set” (2004).
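Interpolation was linear, between the two tested concentrations surrounding the appropriate level; five concentrations were tested over 48 hours in 96-well plates. Here, GI50 denotes the concentration required for 50% inhibition of growth.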 Calls of active or inactive are those of the source. Rule as the data show it: active = GI50 up to about 1.1 µM and inactive = higher.

Legend:
Assay in all cases: inhibition of tumour cell growth, NCI panel, 48 h
OVCAR-5 = tested on: OVCAR-5
RXF 393 = tested on: RXF 393
HCT-15 = tested on: HCT-15
UACC-62 = tested on: UACC-62
NCI-H226 = tested on: NCI-H226
LOX IMVI = tested on: LOX IMVI
SNB-19 = tested on: SNB-19
HCC 2998 = tested on: HCC 2998
DU-145 = tested on: DU-145
NCI/ADR-RES = tested on: NCI/ADR-RES
EKVX = tested on: EKVX
HT-29 = tested on: HT-29
T47D = tested on: T47D
CAKI-1 = tested on: CAKI-1
U-251 = tested on: U-251
SR = tested on: SR
SK-MEL-2 = tested on: SK-MEL-2
MDA-MB-435 = tested on: MDA-MB-435
MOLT-4 = tested on: MOLT-4
CCRF-CEM = tested on: CCRF-CEM

| Structure (SMILES) | GI50 (OVCAR-5) | GI50 (RXF 393) | GI50 (HCT-15) [µM] | GI50 (UACC-62) | GI50 (NCI-H226) | GI50 (LOX IMVI) | GI50 (SNB-19) | GI50 (HCC 2998) | GI50 (DU-145) | GI50 (NCI/ADR-RES) | GI50 (EKVX) | GI50 (HT-29) | GI50 (T47D) | GI50 (CAKI-1) | GI50 (U-251) | GI50 (SR) | GI50 (SK-MEL-2) | GI50 (MDA-MB-435) | GI50 (MOLT-4) | GI50 (CCRF-CEM) |
| --- | --- | --- | --- | --- | --- | --- | --- | --- | --- | --- | --- | --- | --- | --- | --- | --- | --- | --- | --- | --- |
| CC(=O)OC(=C(C#N)C#N)c1nccnc1C(=O)O | > 100 µM (inactive) | > 100 µM (inactive) | > 100 | > 100 µM (inactive) | > 100 µM (inactive) | > 100 µM (inactive) | > 100 µM (inactive) | > 100 µM (inactive) | > 100 µM (inactive) | > 100 µM (inactive) | > 100 µM (inactive) | > 100 µM (inactive) | > 100 µM (inactive) | > 100 µM (inactive) | > 100 µM (inactive) | > 100 µM (inactive) | > 100 µM (inactive) | > 100 µM (inactive) | > 100 µM (inactive) | – |
| O=C(c1cc2c(c3ccccc13)NCCN=C2C(F)(F)F)C(F)(F)F | 65.3 µM (inactive) | 23.3 µM (inactive) | 45.3 | – | 18.5 µM (inactive) | 13.7 µM (inactive) | – | 17.5 µM (inactive) | 41.4 µM (inactive) | 27 µM (inactive) | 47.4 µM (inactive) | 11.6 µM (inactive) | 21.4 µM (inactive) | 32.4 µM (inactive) | 13.5 µM (inactive) | 3.94 µM (inactive) | 18.7 µM (inactive) | 34.2 µM (inactive) | 7.11 µM (inactive) | 17 µM (inactive) |
| O=C(O)c1cccc(NC(C(=O)c2ccccc2)c2ccccc2)c1 (stereo not given) | > 100 µM (inactive) | > 100 µM (inactive) | > 100 | > 100 µM (inactive) | – | > 100 µM (inactive) | > 100 µM (inactive) | > 100 µM (inactive) | > 100 µM (inactive) | > 100 µM (inactive) | > 100 µM (inactive) | – | > 100 µM (inactive) | > 100 µM (inactive) | > 100 µM (inactive) | > 100 µM (inactive) | > 100 µM (inactive) | > 100 µM (inactive) | > 100 µM (inactive) | > 100 µM (inactive) |
| CCOc1ccc(/N=N/C2C(=O)N(C(=O)CC(=O)Nc3ccc(Cl)cc3)N=C2C)cc1 (stereo not given) | > 100 µM (inactive) | > 100 µM (inactive) | – | > 100 µM (inactive) | > 100 µM (inactive) | > 100 µM (inactive) | – | > 100 µM (inactive) | > 100 µM (inactive) | > 100 µM (inactive) | > 100 µM (inactive) | > 100 µM (inactive) | > 100 µM (inactive) | > 100 µM (inactive) | > 100 µM (inactive) | > 100 µM (inactive) | > 100 µM (inactive) | > 100 µM (inactive) | – | > 100 µM (inactive) |
| CC(=O)NC1C(OCc2ccccc2)OC(CO)C(O)C1OCC(=O)NC(C(=O)NC(CCC(=O)NCCCCCC(=O)Nc1ccc2c(c1)CN1C(=O)c3ccccc3C1=N2)C(N)=O)C(C)C (stereo not given) | > 100 µM (inactive) | 21.8 µM (inactive) | 52.2 | 20.9 µM (inactive) | – | 34.4 µM (inactive) | 20.9 µM (inactive) | 35.6 µM (inactive) | 63.8 µM (inactive) | 45.8 µM (inactive) | 31.6 µM (inactive) | 42.8 µM (inactive) | 22.3 µM (inactive) | 28.8 µM (inactive) | 18.8 µM (inactive) | 88.1 µM (inactive) | 27.1 µM (inactive) | 31.6 µM (inactive) | > 100 µM (inactive) | > 100 µM (inactive) |
| CC(C)(C)c1cc(-c2cc(C(C)(C)C)n(-c3ccccc3)n2)nn1-c1ccccc1 | > 100 µM (inactive) | > 100 µM (inactive) | > 100 | 11.6 µM (inactive) | > 100 µM (inactive) | 6.43 µM (inactive) | – | 31.3 µM (inactive) | > 100 µM (inactive) | > 100 µM (inactive) | > 100 µM (inactive) | 68.9 µM (inactive) | 59.2 µM (inactive) | > 100 µM (inactive) | > 100 µM (inactive) | > 100 µM (inactive) | > 100 µM (inactive) | 49.8 µM (inactive) | > 100 µM (inactive) | > 100 µM (inactive) |
| Cc1n[nH]/c(=N\S(=O)(=O)c2ccc(/N=N/c3c(O)c(C(=O)O)cc4ccccc34)cc2)s1 | > 100 µM (inactive) | > 100 µM (inactive) | > 100 | > 100 µM (inactive) | > 100 µM (inactive) | – | > 100 µM (inactive) | > 100 µM (inactive) | > 100 µM (inactive) | > 100 µM (inactive) | > 100 µM (inactive) | > 100 µM (inactive) | > 100 µM (inactive) | > 100 µM (inactive) | > 100 µM (inactive) | > 100 µM (inactive) | > 100 µM (inactive) | > 100 µM (inactive) | > 100 µM (inactive) | > 100 µM (inactive) |
| Cc1cn(CC2(CO)CCC2)c(=O)[nH]c1=O | > 100 µM (inactive) | > 100 µM (inactive) | > 100 | > 100 µM (inactive) | > 100 µM (inactive) | > 100 µM (inactive) | – | > 100 µM (inactive) | > 100 µM (inactive) | > 100 µM (inactive) | > 100 µM (inactive) | > 100 µM (inactive) | > 100 µM (inactive) | > 100 µM (inactive) | > 100 µM (inactive) | > 100 µM (inactive) | > 100 µM (inactive) | > 100 µM (inactive) | > 100 µM (inactive) | > 100 µM (inactive) |
| CC(=O)OCC(=O)[C@@]12OC(C)(C)O[C@@H]1C[C@H]1[C@@H]3CC=C4C[C@@H](O)CC[C@]4(C)[C@H]3CC[C@@]12C | > 100 µM (inactive) | 19.9 µM (inactive) | > 100 | > 100 µM (inactive) | > 100 µM (inactive) | > 100 µM (inactive) | 39.9 µM (inactive) | – | 49.2 µM (inactive) | 66.5 µM (inactive) | 29.6 µM (inactive) | > 100 µM (inactive) | 35.5 µM (inactive) | > 100 µM (inactive) | 58.6 µM (inactive) | > 100 µM (inactive) | > 100 µM (inactive) | > 100 µM (inactive) | > 100 µM (inactive) | > 100 µM (inactive) |
| CCc1n[nH]c(=O)n1N1C(=O)C2CCCCC2C1=O (stereo not given) | > 100 µM (inactive) | > 100 µM (inactive) | > 100 | > 100 µM (inactive) | > 100 µM (inactive) | > 100 µM (inactive) | – | > 100 µM (inactive) | > 100 µM (inactive) | > 100 µM (inactive) | > 100 µM (inactive) | > 100 µM (inactive) | > 100 µM (inactive) | > 100 µM (inactive) | > 100 µM (inactive) | > 100 µM (inactive) | > 100 µM (inactive) | > 100 µM (inactive) | > 100 µM (inactive) | > 100 µM (inactive) |
| CN(C)CCCN1c2ccc(O)cc2Sc2ccc(Cl)cc21 [7-HYDROXYCHLORPROMAZINE] | 15.1 µM (inactive) | 16.9 µM (inactive) | 14.2 | 9.91 µM (inactive) | 11.3 µM (inactive) | 6.71 µM (inactive) | 13.3 µM (inactive) | – | 17.9 µM (inactive) | 14.7 µM (inactive) | 18.4 µM (inactive) | 3.48 µM (inactive) | 21 µM (inactive) | 4.2 µM (inactive) | 9.86 µM (inactive) | 2.96 µM (inactive) | 6.04 µM (inactive) | 8.91 µM (inactive) | 3.18 µM (inactive) | 0.859 µM (active) |
